# From US8012944B2, “Method for treating cancer using IAP antisense oligomer and chemotherapeutic agent” (Pharmascience Inc., priority 2003, dated 2011)
# Entries after “also recorded” stand apart in the source; their conditions may differ.
# Key:
# [1] = test system: H460 cells; test: Apoptotic flow cytometric assay (PI staining, hypo-diploid DNA content); assay type: cell-based, human; settings: 1.2 μM, untreated control 16.6%
# Method: Cells were treated with liposome-oligonucleotide complexes for 4.5 h, and incubated for another 48 h in the medium without transfection reagent at 37° C. Following incubation, cells were harvested, washed twice with sample buffer (0.5% glucose in PBS without Ca^++ and Mg^++), and fixed in cold 70% ethanol at 4° C. for at least 18 hrs. Samples were centrifuged at 3000 rpm for 10 min, then resuspended in sample buffer containing 50 μg/ml propidium iodide (PI) and 400 U/ml RNase A. Samples were incubated for 30 min at room temperature and 30 min on ice, followed by flow cytometry analysis. EXPO Software (Applied Cytometry Systems, Sacramento, Calif.) was used to generate histograms, which were used to determine the cell cycle phase distribution after debris exclusion. The Sub G1/G0 cell fraction was considered as representative for apoptotic cells.
# [2] = test system: pro-caspase-3, PARP; test: Pro-caspase-3 and PARP protein in H460 cells (western blot); assay type: cell-based, human; settings: 1.2 μM
# Method: One day prior to transfection, H460 cells were plated in 6- or 96-well tissue culture plates. Phosphorothioate antisense oligonucleotides were delivered into cells with Lipofectamine 2000 (Life Technologies) in the form of liposome-oligonucleotide complexes. Following a 4.5 or 6 h transfection, the transfection medium was replaced with RPMI medium containing 10% FBS, and the cells incubated for another 24 or 48 h.
# The cells or tumor tissue samples were lysed with ice-cold lysis buffer (50 mM Tris, 150 mM NaCl, 2.5 mM EDTA, 0.1% SDS, 0.5% sodium deoxycholate, 1% NP-40, 0.02% sodium azide) containing protease inhibitors (Complete-Mini protease inhibitor tablets; Boehringer Mannheim GmBH, Mannheim, Germany). After incubation for 30 min on ice, samples were centrifuged at 10,000 rpm for 15 min, and stored at −20° C. Protein content in the lysed extracts was determined using a detergent-compatible Bio-Rad assay (Bio-Rad Labs, Hercules, Calif.). Equal amounts of protein (40 μg/lane) were separated on 12% SDS-polyacrylamide gels or 4-15% gradient SDS-polyacrylamide pre-made gels (Bio-Rad) and transferred to nitrocellulose membranes. Primary antibodies against XIAP, Bcl-2 (DAKO, Glostrup, Denmark), Bax (Sigma, St. Louis, Mo.), β-actin (Sigma), caspase-3 (BD PharMingen, San Diego, Calif.), and PARP (BD PharMingen) were used. The secondary antibody was the appropriate horseradish-conjugated anti-mouse or anti-rabbit IgG (Promega, Madison, Wis.). Proteins were detected by enhanced chemiluminescence (ECL; Amersham Pharmacia Biotech, Buckinghamshire, England) and visualized after exposure to Kodak autoradiography film. Scanning densitometry (Molecular Dynamics, Sunnyvale, Calif.) was performed to quantify band intensities by volume/area integration. The amount of XIAP, caspase-3, Bcl-2 and Bax in cells was normalized to their respective lane β-actin levels, upon stripping and reprobing.
# [3] = test system: human XIAP protein; test: XIAP protein in H460 tumor xenografts (western blot); assay type: in vivo, mouse xenograft
# Method: To correlate the tumor growth inhibitory effects of G4 AS oligonucleotides with XIAP protein expression, we examined the changes in XIAP expression at the end of the in vivo treatment with 15 mg/kg of G4 AS and SC oligonucleotides. At day 21 or 24 post-tumor inoculation when tumors reached 1 cm^3 in size (FIG. 17), tumors were harvested and lysates from tumor homogenates were used for western blot analysis. XIAP and β-actin antibodies against the human protein were used, allowing for determination of human XIAP levels obtained from tumor cells specimens without contamination from XIAP derived from mouse cells. […]
# The cells or tumor tissue samples were lysed with ice-cold lysis buffer (50 mM Tris, 150 mM NaCl, 2.5 mM EDTA, 0.1% SDS, 0.5% sodium deoxycholate, 1% NP-40, 0.02% sodium azide) containing protease inhibitors (Complete-Mini protease inhibitor tablets; Boehringer Mannheim GmBH, Mannheim, Germany). […] Protein content in the lysed extracts was determined using a detergent-compatible Bio-Rad assay (Bio-Rad Labs, Hercules, Calif.). […] Proteins were detected by enhanced chemiluminescence (ECL; Amersham Pharmacia Biotech, Buckinghamshire, England) and visualized after exposure to Kodak autoradiography film. Scanning densitometry (Molecular Dynamics, Sunnyvale, Calif.) was performed to quantify band intensities by volume/area integration. […]
# [4] = test system: MDA-MB-435/LCC6 human breast carcinoma xenografts; test: Systemic (i.p.) PS-oligonucleotides in LCC6 breast carcinoma xenografts; assay type: in vivo, female SCID-RAG2 mice; settings: 12.5 mg/kg i.p.; day 35, two weeks after the last treatment
# Method: Initial systemic PS-oligonucleotide studies were designed without any chemotherapeutic agents. SCID-RAG2 mice were inoculated with H460 human lung carcinoma cells (s.c. shoulder injection of 10^6 cells) and treatments with G4 and F3 AS PS-oligonucleotides, as well as a scrambled control, were initiated three days after tumor inoculation. Nucleobase oligomer injections were administered i.p. at 12.5 mg/kg three times a week for three weeks. At the end of the treatment period, mean tumor sizes in the groups treated with either G4 or F3 AS oligonucleotides were ˜50% smaller than in the group treated with a scrambled control oligonucleotides (FIG. 15). The same treatment protocol was tested on female SCID-RAG2 mice inoculated orthotopically with MDA-MB-435/LCC6 human breast carcinoma cells. Two weeks after the last treatment (day 35) tumor volumes of mice treated with F3, C5 or G4 AS oligonucleotides were 70%, 60%, and 45%, respectively, smaller than vehicle controls (FIG. 16).
# Efficacy experiments were conducted in male RAG2 immunodeficient mice bearing NCI-H460 tumours or female RAG2 mice bearing LCC6 tumors. Treatments were commenced on day 3 after tumor inoculation. Saline (controls), G4 AS oligonucleotides (5 or 15 mg/kg), or G4 SC oligonucleotides (5 or 15 mg/kg) were administered i.p. daily for five doses a week over a three week regimen. Vinorelbine (VNB, 5 or 10 mg/kg) was administered i.v. via the tail vein, either alone or in combination with oligonucleotides, at day 3, 7, 11 and 17 after tumor inoculation. When oligonucleotides were administered in combination with VNB, the drug treatment was performed four hours after ODN treatment.
# [5] = test system: H460 cells; test: Nuclear morphology (DAPI staining); assay type: cell-based, human; settings: 1.2 μM
# Method: Cells were treated with liposome-oligonucleotde complexes for 4.5 h, and incubated for another 48 h at 37° C. in the medium without transfection reagent or oligonucleotides. Cells were harvested and stained with 0.10 μg/ml DAP1 (4′, 6-diamidino-2-2-phenylindole) for 30 min at room temperature. Cells were placed on a glass slide, cytospun, and viewed with a Leica microscope and 40× objective lens under UV fluorescent illumination. Digital images were captured using Imagedatabase V. 4.01 Software (Leica, Germany).
sequence,measurement,setting,value
GCTGAGTCTCCATATTGCC [G4 AS] (chemistry not given here),hypo-diploid DNA content of cells,[1],40.8%
same,reduction of pro-caspase-3 protein levels compared to untreated control,[2],60%
same,down-regulation of XIAP protein in tumors vs control tumors,"[3]; 15 mg/kg, day 21 or 24, P<0.005",approximately 85%
same,down-regulation of XIAP protein in tumor xenografts,[3]; systemic administration,85%
same,tumor volumes smaller than vehicle controls,[4],45%
same,nuclear morphological changes characteristic of apoptosis,[5],underwent morphological changes characteristic of apoptosis; also recorded: significant nuclear DNA condensation and fragmentation
